Data set [1] deals with T1, Bax (Homo sapiens, UniProt Q07812). The data set is described as follows: biochemical.
Data set [2] has as its target T1, Bax. The experiment in a line: biochemical. The class given is biochemical.
The next data set deals with Wt BMK cells. The experiment in a line: Live-cell imaging of cell death. Conditions: for effect on apoptosis of Wt compared with DKO cells (annexin V staining): Wt versus DKO BMK cells, among the five compounds. The class given is cell-based, mouse.
The subject of data set [3] is Bax−/− Bak−/− (DKO) BMK cells. The experiment in a line: Live-cell imaging of cell death. The class given is cell-based, mouse. Conditions: 24 h.
The target of a further data set is C126A Bax (Homo sapiens, UniProt Q07812, C126A). Particulars: mitochondria, 20 nM Bax, 10 μM compound.
Sequence of C126A Bax (Q07812 whole entry C126A): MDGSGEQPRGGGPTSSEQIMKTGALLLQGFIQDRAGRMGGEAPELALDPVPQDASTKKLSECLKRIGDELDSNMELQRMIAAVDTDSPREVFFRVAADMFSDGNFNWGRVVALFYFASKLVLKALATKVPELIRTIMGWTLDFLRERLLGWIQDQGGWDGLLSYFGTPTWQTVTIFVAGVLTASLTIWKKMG
Data set [4] addresses T1, Bax. The data set is classed as biochemical. Particulars: 100 nM Bax, 10 μM compound or 20 nM cBid/Bim, no membranes, DSS.
The target of data set [5] is T1, Bax. The class given is biochemical. Conditions: 100 nM Bax, 10 μM compound, DSS.

Counter-ions that a name gives are not always drawn. Like-named read-outs stand apart in the source and are kept apart here.

T1 sequence (Q07812 whole entry): as the sequence (Q07812 whole entry C126A) above, with A126C counted along it

For the compound `CC(C)N(CCC(=O)c1ccc2ccccc2c1)Cc1ccccc1` [ZM, ZM39923 hydrochloride], the EC50 on Bax [1] is > 3 µM; on Bax [2] it was 3500 nM; in the data set on Wt BMK cells (Mus musculus, 24 h, read-out: EC50 of cell kill) it was ~10 µM; in data set [3] (Mus musculus, read-out: EC50 of cell kill) it was ~10 µM. For the same compound, the “activation of C126A Bax” value at C126A Bax is listed as “almost completely resistant”.

Regarding `CC1=CC(=O)c2c(O)cccc2C1=O` [Plumbagin, plumbagin], the values for the EC50 on Bax [1] and on Bax [2] were > 3 µM and 1500 nM, respectively. Moreover, in the data set on Wt BMK cells, the “effect on apoptosis of Wt compared with DKO cells (annexin V staining)” value is “most pronounced effects”.

Regarding “Bim: pro-apoptotic BH3 protein, recombinant, positive control for Bax oligomerization”, the “formation of dimers and higher-order Bax oligomers in solution” value with Bax [4] is reported as “no effects”.

For the compound `O=c1c2ccccc2[se]n1-c1ccccc1` [Ebselen, ebselen], the toxicity to cells entry in the data set with Wt BMK cells (Wt BMK cells, 24 h) is “not toxic”; in data set [3] (DKO BMK cells), “not toxic”. Further, the “formation of dimers and higher-order Bax oligomers in solution” value on Bax [4] was “pronounced effects”. Besides, at C126A Bax, the “activation of C126A Bax” value is “almost completely resistant”.

Take `CC(=O)[O][Hg][c]1ccccc1` [PMA, phenylmercuric acetate]: the EC50 at Bax [2] (read-out: EC50 in mitochondria, 20 nM Bax, mitochondria from Bax−/− Bak−/− BMK cells, Smac–mCherry release) stood at 1300 nM. Besides, the “effect on apoptosis of Wt compared with DKO cells (annexin V staining)” value with Wt BMK cells was “most pronounced effects”. For the same compound, the “Bax oligomerization (higher-order complexes) in liposomes” value on Bax [5] is “most pronounced effects”.

Values taken from publication PMC4847155 (Biochemical Journal, 2016).
